Experimental data: US10196417B2, “Baicalin magnesium compound and its preparation method and application” (CHENGDE MEDICAL UNIVERSITY, priority 2016, dated 2019)
Marks after values point to notes of the source that are not given here.

Tested on: acetic acid-induced pain in mice
Experiment: Analgesia: acetic acid-induced writhing
Assay type: in vivo
Settings: 0.15 g/kg intragastric once per day 7 days
Method: 40 mice, 20-22 g in weight, were randomly divided into 4 groups each having 10 mice, a baicalin (0.067 g/kg) group, a baicalin magnesium (equivalent to 0.067 g/kg of baicalin) group, a blank control group (administrated with normal saline), and an aspirin positive control group (0.15 g/kg). The mice were intragastrically administrated once per day for successive 7 days. After 30 minutes of final administration, the mice were intraperitoneally injected with 0.6% acetic acid saline solution at a dose of 0.2 mL/10 g; the number of writhing responses in the mice within 15 minutes was counted. Analgesia % was calculated as follows: Analgesia %=[(average number of writhing responses of the blank control group−average number of writhing responses of the drug administration group)/average number of writhing responses of the blank control group]×100%. Single-factor variance analysis was performed on data by the SPSS19.0 statistical software, and P<0.05 was of statistical significance.

Q: For `CC(=O)Oc1ccccc1C(=O)O` [Positive Control, aspirin], which Analgesia % (vs blank control) is on record?
A: 83.3* %

Q: And the Number of writhing (writhing within 15 minutes after 0.6% acetic acid i.p.)?
A: 4.43 ± 3.21
